Experiments:
Assay in all cases: relative viability (nuclei count vs DMSO), 5 days (fraction); higher = more cells survive
Elesclomol + Foretinib = compound: CN(NC(=O)CC(=O)NN(C)C(=S)c1ccccc1)C(=S)c1ccccc1 [Elesclomol] + COc1cc2c(Oc3ccc(NC(=O)C4(C(=O)Nc5ccc(F)cc5)CC4)cc3F)ccnc2cc1OCCCN1CCOCC1 [Foretinib] (partner 0.25 µM)
In short: (§1)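 Nuclei were stained with Hoechst during a one-step fixation (final 0.05% Triton X-100, 1% formaldehyde, 1 ug/ml Hoechst) carried out 5 days after dosing, then counted on 4× images. The cells, lung cancer lines in 1536-well plates, had been dosed by pin tool the day after seeding with one drug alone or a fixed anchor-drug dose plus five library-drug doses (not always all listed) in √10 steps. Relative viability is the nuclei count in treated wells divided by that in vehicle wells, and each value is the median of duplicate plates.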

Elesclomol + Dasatinib = compound: CN(NC(=O)CC(=O)NN(C)C(=S)c1ccccc1)C(=S)c1ccccc1 [Elesclomol] + Cc1nc(Nc2ncc(C(=O)Nc3c(C)cccc3Cl)s2)cc(N2CCN(CCO)CC2)n1 [Dasatinib] (partner 0.075 µM)
In short: as §1

Elesclomol + Navitoclax = compound: CN(NC(=O)CC(=O)NN(C)C(=S)c1ccccc1)C(=S)c1ccccc1 [Elesclomol] + CC1(C)CCC(c2ccc(Cl)cc2)=C(CN2CCN(c3ccc(C(=O)NS(=O)(=O)c4ccc(N[C@H](CCN5CCOCC5)CSc5ccccc5)c(S(=O)(=O)C(F)(F)F)c4)cc3)CC2)C1 [Navitoclax] (partner 0.5 µM)
In short: as §1

Elesclomol + Lapatinib = compound: CN(NC(=O)CC(=O)NN(C)C(=S)c1ccccc1)C(=S)c1ccccc1 [Elesclomol] + CS(=O)(=O)CCNCc1ccc(-c2ccc3ncnc(Nc4ccc(OCc5cccc(F)c5)c(Cl)c4)c3c2)o1 [Lapatinib] (partner 2 µM)
In short: as §1

Elesclomol + Trametinib = compound: CN(NC(=O)CC(=O)NN(C)C(=S)c1ccccc1)C(=S)c1ccccc1 [Elesclomol] + CC(=O)Nc1cccc(-n2c(=O)n(C3CC3)c(=O)c3c(Nc4ccc(I)cc4F)n(C)c(=O)c(C)c32)c1 [Trametinib] (partner 0.02 µM)
In short: as §1

Row | Cell Line | relative viability (Elesclomol + Foretinib; first compound 0.003162 µM) | relative viability (Elesclomol + Foretinib; first compound 0.01 µM) | relative viability (Elesclomol + Foretinib; first compound 0.03162 µM) | relative viability (Elesclomol + Foretinib; first compound 0.1 µM) | relative viability (Elesclomol + Dasatinib; first compound 0.003162 µM) | relative viability (Elesclomol + Dasatinib; first compound 0.01 µM) | relative viability (Elesclomol + Dasatinib; first compound 0.03162 µM) | relative viability (Elesclomol + Dasatinib; first compound 0.1 µM) | relative viability (Elesclomol + Navitoclax; first compound 0.003162 µM) | relative viability (Elesclomol + Navitoclax; first compound 0.01 µM) | relative viability (Elesclomol + Navitoclax; first compound 0.03162 µM) | relative viability (Elesclomol + Navitoclax; first compound 0.1 µM) | relative viability (Elesclomol + Lapatinib; first compound 0.003162 µM) | relative viability (Elesclomol + Lapatinib; first compound 0.01 µM) | relative viability (Elesclomol + Lapatinib; first compound 0.03162 µM) | relative viability (Elesclomol + Lapatinib; first compound 0.1 µM) | relative viability (Elesclomol + Trametinib; first compound 0.003162 µM) | relative viability (Elesclomol + Trametinib; first compound 0.01 µM) | relative viability (Elesclomol + Trametinib; first compound 0.03162 µM) | relative viability (Elesclomol + Trametinib; first compound 0.1 µM)
1 | 201T | 0.945 | 0.671 | 0.265 | 0.265 | 0.535 | 0.587 | 0.543 | 0.236 | 1.16 | 1.16 | 1.23 | 1.16 | 1.04 | 1.08 | 1.07 | 0.985 | 0.707 | 0.749 | 0.742 | 0.682
2 | A-427 | 0.981 | 0.956 | 0.917 | 0.157 | 0.661 | 0.582 | 0.358 | 0.127 | 0.904 | 0.827 | 1 | 0.499 | 0.933 | 1.02 | 1.05 | 0.52 | 0.761 | 0.411 | 0.236 | 0.183
3 | ABC-1 | 0.255 | 0.221 | 0.259 | 0.215 | 0.173 | 0.233 | 0.207 | 0.193 | – | – | – | – | 0.935 | 0.477 | 0.466 | 0.42 | – | – | – | –
4 | BEN | 0.493 | 0.467 | 0.296 | 0.265 | 0.359 | 0.204 | 0.219 | 0.159 | 0.049 | 0.0566 | 0.0364 | 0.0268 | 0.577 | 0.335 | 0.247 | 0.197 | 0.915 | 0.65 | 0.749 | 0.395
5 | CAL-12T | 1.04 | 1.16 | 0.263 | 0.144 | 0.282 | 0.117 | 0.0442 | 0.0555 | 1 | 0.243 | 0.123 | 0.0625 | 0.529 | 0.484 | 0.103 | 0.0805 | 0.265 | 0.139 | 0.113 | 0.114
6 | COR-L23 | 0.977 | 0.667 | 0.418 | 0.198 | 0.439 | 0.254 | 0.141 | 0.068 | 0.9 | 0.616 | 0.461 | 0.0852 | 0.885 | 0.484 | 0.434 | 0.178 | 0.55 | 0.22 | 0.239 | 0.101
7 | COR-L 105 | 0.985 | 0.698 | 0.44 | 0.176 | 0.303 | 0.248 | 0.21 | 0.079 | 0.682 | 0.427 | 0.421 | 0.236 | 0.341 | 0.291 | 0.283 | 0.246 | 0.465 | 0.478 | 0.316 | 0.311
8 | ChaGo-K-1 | 0.838 | 0.95 | 0.34 | 0.186 | 0.609 | 0.458 | 0.214 | 0.116 | 0.739 | 0.374 | 0.258 | 0.221 | – | – | – | – | 0.932 | 0.802 | 0.571 | 0.15
9 | EKVX | 0.779 | 0.736 | 0.398 | 0.189 | 0.474 | 0.315 | 0.226 | 0.202 | 0.875 | 0.658 | 0.289 | 0.205 | 0.204 | 0.204 | 0.16 | 0.141 | 0.313 | 0.188 | 0.144 | 0.105
10 | EMC-BAC-2 | 1.1 | 0.877 | 0.784 | 0.392 | 0.361 | 0.28 | 0.286 | 0.138 | 1.2 | 1.06 | 1.06 | 0.604 | 0.841 | 0.797 | 0.757 | 0.541 | 0.813 | 0.808 | – | 0.4
11 | EPLC-272H | 0.67 | – | 0.672 | 0.0988 | 0.397 | – | 0.405 | 0.059 | 1.1 | – | 1.03 | 0.164 | 0.873 | – | 1.04 | 0.119 | 0.264 | 0.111 | 0.09 | 0.119
12 | H3255 | 0.765 | 0.884 | 0.57 | 0.398 | 0.387 | 0.396 | 0.274 | 0.222 | 0.629 | 0.457 | 0.171 | 0.128 | 0.246 | 0.265 | 0.207 | 0.232 | 0.585 | 0.532 | 0.328 | 0.284
13 | HARA | 0.875 | 0.878 | 0.691 | 0.238 | 0.244 | 0.312 | 0.283 | 0.0991 | 1.16 | 1.17 | 0.884 | 0.267 | 0.679 | 0.715 | 0.756 | 0.186 | 0.704 | 0.465 | 0.189 | 0.159
14 | HCC-15 | 0.946 | 0.857 | 0.355 | 0.171 | 0.533 | 0.386 | 0.169 | 0.0668 | 0.73 | 0.656 | 0.439 | 0.373 | 0.869 | 0.684 | 0.574 | 0.284 | 0.351 | 0.42 | 0.345 | 0.158

Reference: the supplement of paper PMC10307832
